{
  "source": "ChEMBL document CHEMBL1152774",
  "about": "“Inhibition of Trypanosoma brucei glucose-6-phosphate dehydrogenase by human steroids and their effects on the viability of cultured parasites” (Bioorg Med Chem, 2009)",
  "key": {"[1]": {"molecular_target": "T1, Glucose-6-phosphate 1-dehydrogenase (Trypanosoma brucei, UniProt Q9GRG7)", "T1 sequence (Q9GRG7 whole entry)": "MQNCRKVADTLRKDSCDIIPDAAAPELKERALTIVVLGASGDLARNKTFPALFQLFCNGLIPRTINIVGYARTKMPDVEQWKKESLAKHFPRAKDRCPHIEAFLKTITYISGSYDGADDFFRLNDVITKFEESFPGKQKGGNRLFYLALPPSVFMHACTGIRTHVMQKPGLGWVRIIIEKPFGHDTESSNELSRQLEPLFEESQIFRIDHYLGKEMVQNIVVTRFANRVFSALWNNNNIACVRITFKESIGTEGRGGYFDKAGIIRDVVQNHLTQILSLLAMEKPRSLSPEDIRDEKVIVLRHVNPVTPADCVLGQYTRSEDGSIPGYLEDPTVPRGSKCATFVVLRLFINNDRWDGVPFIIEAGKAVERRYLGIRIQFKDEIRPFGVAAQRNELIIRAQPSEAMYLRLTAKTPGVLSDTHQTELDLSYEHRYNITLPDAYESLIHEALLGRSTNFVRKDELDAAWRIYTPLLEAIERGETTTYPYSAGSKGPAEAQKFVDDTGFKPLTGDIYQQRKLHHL", "assay": "Inhibition of Trypanosoma brucei G6PDH using NADP as substrate by Lineweaver-Burke plot"}, "[2]": {"molecular_target": "T1, Glucose-6-phosphate 1-dehydrogenase", "assay": "Inhibition of Trypanosoma brucei G6PDH using glucose-6-phosphate as substrate by Lineweaver-Burke plot"}, "[3]": {"molecular_target": "T2, Glucose-6-phosphate 1-dehydrogenase (Homo sapiens, UniProt P11413)", "T2 sequence (P11413 whole entry)": "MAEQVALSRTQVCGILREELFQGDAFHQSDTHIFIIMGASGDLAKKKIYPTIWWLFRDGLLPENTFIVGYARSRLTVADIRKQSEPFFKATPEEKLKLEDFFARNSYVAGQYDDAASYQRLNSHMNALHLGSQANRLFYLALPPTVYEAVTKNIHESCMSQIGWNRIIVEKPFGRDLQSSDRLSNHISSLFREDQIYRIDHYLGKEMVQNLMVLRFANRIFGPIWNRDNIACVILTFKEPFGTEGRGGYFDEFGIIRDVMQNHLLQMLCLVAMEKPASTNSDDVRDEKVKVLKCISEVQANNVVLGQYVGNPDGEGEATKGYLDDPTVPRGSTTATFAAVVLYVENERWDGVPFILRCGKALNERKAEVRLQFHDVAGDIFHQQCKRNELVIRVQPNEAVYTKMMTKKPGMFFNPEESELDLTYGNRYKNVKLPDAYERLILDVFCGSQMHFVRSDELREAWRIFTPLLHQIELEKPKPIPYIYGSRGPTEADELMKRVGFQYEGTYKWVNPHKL", "assay": "Inhibition of human G6PDH using glucose-6-phosphate as substrate by Lineweaver-Burke plot"}, "Trypanosoma brucei": {"test_system": "Trypanosoma brucei", "assay": "Trypanocidal activity against Trypanosoma brucei 427 bloodstream form after 48 hrs by MTS assay", "assay_type": "functional", "settings": "Trypanosoma brucei, 427, 48 h; read-out: LD50 (the source's name)"}, "[4]": {"molecular_target": "T2, Glucose-6-phosphate 1-dehydrogenase", "assay": "Inhibition of human G6PDH using NADP as substrate by Lineweaver-Burke plot"}, "Leishmania mexicana": {"test_system": "Leishmania mexicana", "assay": "Antileishmanial activity against Leishmania mexicana early-metacyclic promastigotes up to 96 uM after 48 hrs by MTS assay", "assay_type": "functional, organism-based"}},
  "note": "pKi: −log10 of the molar value. Activity calls are given as the source filed them. The rule behind the calls is not given here.",
  "data": [
    {"smiles": "C[C@]12CC[C@H](O)CC1=CC[C@@H]1[C@@H]2CC[C@]2(C)C(=O)CC[C@@H]12", "note": "[PRASTERONE]", "values": [
      {"measurement": "pKi", "setting": "[1]", "result": 5.96},
      {"measurement": "pKi", "setting": "[2]", "result": 5.77},
      {"measurement": "pKi", "setting": "[3]", "result": 5.05},
      {"measurement": "LC50", "setting": "Trypanosoma brucei", "result": 43.8, "unit": "µM"},
      {"measurement": "pKi", "setting": "[4]", "result": 5.21},
      {"measurement": "Activity", "setting": "Leishmania mexicana", "result": "inactive"}
    ]},
    {"smiles": "C[C@]12CC[C@H](O)C[C@@H]1CC[C@@H]1[C@@H]2CC[C@]2(C)C(=O)CC[C@@H]12", "note": "[EPIANDROSTERONE]", "values": [
      {"measurement": "pKi", "setting": "[1]", "result": 6.34},
      {"measurement": "pKi", "setting": "[2]", "result": 6.31},
      {"measurement": "pKi", "setting": "[3]", "result": 5.47},
      {"measurement": "LC50", "setting": "Trypanosoma brucei", "result": 24.5, "unit": "µM"},
      {"measurement": "pKi", "setting": "[4]", "result": 5.52},
      {"measurement": "Activity", "setting": "Leishmania mexicana", "result": "inactive"}
    ]}
  ]
}
